Entries after “also recorded” stand apart in the source; their conditions may differ.
Columns and labels:
[1] = system: TAA treated mice; assay: Liver function analysis of blood plasma in TAA treated mice; type: in vivo
[2] = system: glial cells; set-up: species or system mice; settings: mouse, in vivo
[3] = system: TAA treated mice; assay: Neurological score in TAA treated mice; type: in vivo
[4] = system: TAA treated mice; assay: Eight-arm maze (cognitive function) in TAA treated mice; type: in vivo
[5] = system: TAA treated mice; assay: Activity test in TAA treated mice; type: in vivo
[6] = system: TAA treated mice; settings: mouse, in vivo
[7] = system: AMPK; assay: Hippocampal AMPK phosphorylation (immunoblot) in TAA-induced liver failure mice; type: in vivo
[8] = system: dopamine; assay: Brain catecholamine (dopamine) measurement by HPLC-ECD in TAA treated mice; type: in vivo
Experimental: (vi) Catecholamine measurements. Catecholamines were measured as described previously (Avraham et al, 1996). The assay for dopamine was performed by High Pressure Liquid Chromatography (HPLC) separation and detection using HPLC-electrochemical detection (ECD). Values are presented as concentration (ng/g tissue).

[9] = system: BDL mice; assay: Motor function in chronic liver failure induced by bile duct ligation (BDL); type: in vivo; settings: BDL mice relative to sham; cannabidiol 5 mg/kg i.p. daily, evaluated 2 weeks post-surgery
[10] = system: malondialdehyde; assay: Oxidative stress (malondialdehyde) in liver tissue of BDL mice; type: in vivo; settings: cannabidiol 5 mg/kg i.p. daily
[11] = system: IL-1β mRNA; assay: Hippocampal IL-1β mRNA level by RT-PCR in BDL mice; type: in vivo; settings: cannabidiol 5 mg/kg i.p. daily for 3 weeks
[12] = system: BDL mice; assay: Cognitive function in chronic liver failure induced by bile duct ligation (BDL); type: in vivo; settings: BDL mice relative to sham; cannabidiol 5 mg/kg i.p. daily, evaluated 2 weeks post-surgery
[13] = system: TAA treated CB2-KO mice; assay: Blood ALT and AST levels in TAA treated CB2-KO mice; type: in vivo
Experimental: (ii) Mice. Eight- to 10-week old female Sabra mice (29-32 g), obtained from the animal facility of the Hebrew University, Israel, were assigned at random to different groups of 10 mice per cage and were used in all experiments. All cages contained wood-chip bedding and were placed in a temperature-controlled room at 22° C., on a 12 h light/dark cycle (lights on at 07.00 a.m.). The mice had free access to water 24 h a day. The food provided was Purina chow, the animals were maintained in the animal facility (SPF unit) of the Hebrew University Hadassah Medical School, Jerusalem. CB-2 KO mice were provided by Prof. Zimmer, Institute of Molecular Psychiatry, University of Bonn, Germany.
(xi) Liver function analysis. Ammonia, bilirubin, ALT, AST, GGT and glucose were analyzed using standard analytical methods in the Hadassah Hospital Biochemistry Department, Jerusalem, Israel.

[14] = system: CB1 and the CB2 receptors; settings: previously known; cited from earlier work
[15] = system: AMPK; assay: Hippocampal AMPK phosphorylation (immunoblot) in control mice; type: in vivo; settings: for hippocampal AMPK phosphorylation (activated AMPK): control mice

COc1cc(CNC(=O)CCCC/C=C/C(C)C)ccc1O [capsaicin]
alanine transaminase (ALT) level ([1]; TAA treated mice, blood): significantly reduces | aspartate aminotransferase (AST) level ([1]; TAA treated mice, blood): significantly reduces | astrogliosis, direction of change (GFAP staining, hippocampus) [2]: prevented; also recorded: reduced astrogliosis; also recorded: minimal; also recorded: Decrease (p < 0.001) | neurological score [3]: improved; also recorded: significantly improves | TAA-induced impaired cognitive function (eight arm maze) [4]: improved significantly; also recorded: significantly improves | activity performance [5]: restored; also recorded: significantly improves | Apoptosis (frequency of cells showing apoptosis/necrosis in the liver) [6]: amelioration of TAA-induced apoptosis/necrosis reached statistical significance; also recorded: Decreased | Inflammation (frequency of cells in the liver) [6]: Decreased | Regeneration (frequency of cells in the liver) [6]: significantly less hepatic regeneration; also recorded: Decreased

NC(=O)c1ncn([C@@H]2O[C@H](CO)[C@@H](O)[C@H]2O)c1N [AICAR, 5-aminoimidazole-4-carboxamide ribonucleoside]
AMPK activation ([7]; TAA treated mice, AICAR treatment): augmented AMPK activation | alanine transaminase (ALT) level ([1]; TAA treated mice, blood): Neither AICAR nor THC ameliorated these markers | aspartate aminotransferase (AST) level ([1]; TAA treated mice, blood): Neither AICAR nor THC ameliorated these markers | ammonia level ([1]; TAA treated mice, blood plasma): no effect | bilirubin level ([1]; TAA treated mice, blood plasma): Neither AICAR nor THC ameliorated these markers | gamma-glutamyltransferase (GGT) level ([1]; TAA treated mice, blood plasma): Neither AICAR nor THC ameliorated these markers | brain dopamine concentration [8]: restored levels to normal

C=C(C)[C@@H]1CCC(C)=C[C@H]1c1c(O)cc(CCCCC)cc1O [cannabidiol]
motor impairment (motor activity) [9]: restored; also recorded: reversed | oxidative stress in the liver (malondialdehyde) [10]: restored; also recorded: reversed | IL-1β mRNA level in the hippocampus (normalized to L19 mRNA) [11]: restored; also recorded: reversed | cognitive impairment (eight arm maze AUC) [12]: restored; also recorded: reversed

Cc1c(C(=O)NN2CCCCC2)nn(-c2ccc(Cl)cc2Cl)c1-c1ccc(Cl)cc1 [SR141716A]
alanine transaminase (ALT) level ([1]; mouse, in vivo): significantly reduced | aspartate aminotransferase (AST) level ([1]; mouse, in vivo): significantly reduced | astrogliosis, direction of change (GFAP staining, hippocampus) [2]: prevented; also recorded: Decrease (p < 0.001) | AST level [13]: effective in reducing its level | influence of co-administration on the ALT effect of 2-AG ([13]; 2-AG + SR141716A): blocked the effect of 2-AG | influence of co-administration on the AST effect of 2-AG ([13]; 2-AG + SR141716A): abolished the effect of 2-AG | Inflammation (frequency of cells in the liver) [6]: reduced; also recorded: Decreased | Regeneration (frequency of cells in the liver) [6]: Increased

CCCCC/C=C\C/C=C\C/C=C\C/C=C\CCCC(=O)OC(CO)CO [2-AG, 2-arachidonoylglycerol]
motor impairment (motor activity) [9]: failed to reverse | alanine transaminase (ALT) level ([1]; mouse, in vivo): significantly reduced | aspartate aminotransferase (AST) level ([1]; mouse, in vivo): significantly reduced | influence of the co-administered agent on the other agent's reduction of ALT and AST levels ([1]; mouse, in vivo): did not counteract the effect of SR141716A or SR144528 | ALT level [13]: modestly but significantly reduced | AST level [13]: effective in reducing its level | cognitive impairment (eight arm maze AUC) [12]: effectively reversed | Inflammation (frequency of cells in the liver) [6]: Decreased | Regeneration (frequency of cells in the liver) [6]: Increased

CCCCCc1cc(O)c2c(c1)OC(C)(C)[C@@H]1CCC(C)=C[C@@H]21 [THC, (−)-(6aR,10aR)-6,6,9-trimethyl-3-pentyl-6a,7,8,10a-tetrahydro-6H-benzo[c]chromen-1-ol]
affinity to CB1 versus CB2 receptors [14]: about equal affinity | hippocampal AMPK phosphorylation (activated AMPK) ([7]; TAA treated mice, 0.01 mg/kg THC): inactivating effect | AMPK activation in brain at end of behavioral studies ([7]; TAA treated mice, 0.1 mg/kg THC daily for 5 days, 0.1 mg/kg): activates AMPK; also recorded: Amplification of AMPK activation | hippocampal AMPK phosphorylation (activated AMPK) ([7]; TAA treated mice, 0.1 mg/kg THC, 0.1 mg/kg): AMPK activation was achieved; also recorded: augmented AMPK activation | quantity of THC required to activate AMPK ([7]; experimental hepatic encephalopathy animals): 0.1 mg/kg | hippocampal AMPK phosphorylation (activated AMPK) ([15]; higher concentrations of THC (up to 10 mg/kg)): dose dependent elevation in activated enzyme | hippocampal AMPK phosphorylation (activated AMPK) ([15]; low levels of THC (less than 0.1 mg/kg)): reduced the level of activated AMPK | quantity of THC required to activate AMPK ([15]; healthy animals): 10 mg/kg | alanine transaminase (ALT) level ([1]; mouse, in vivo): Neither AICAR nor THC ameliorated these markers | ammonia level ([1]; mouse, in vivo): no effect | aspartate aminotransferase (AST) level ([1]; mouse, in vivo): Neither AICAR nor THC ameliorated these markers | bilirubin level ([1]; mouse, in vivo): Neither AICAR nor THC ameliorated these markers | gamma-glutamyltransferase (GGT) level ([1]; mouse, in vivo): Neither AICAR nor THC ameliorated these markers | neurological score [3]: improved | brain dopamine concentration [8]: restored levels to normal | TAA-induced impaired cognitive function (eight arm maze) [4]: improved significantly | activity performance [5]: restored

SR144528
alanine transaminase (ALT) level ([1]; TAA treated mice, blood): significantly reduced | aspartate aminotransferase (AST) level ([1]; TAA treated mice, blood): significantly reduced | Inflammation (frequency of cells in the liver) [6]: non-significant changes | Regeneration (frequency of cells in the liver) [6]: Increased

CCCCCCC(C)(C)c1cc(OC)c([C@@H]2C=C(CO)[C@@H]3C[C@H]2C3(C)C)c(OC)c1 [HU-308]
alanine transaminase (ALT) level ([1]; TAA treated mice, blood): significantly reduced | aspartate aminotransferase (AST) level ([1]; TAA treated mice, blood): significantly reduced | influence of the co-administered agent on the other agent's reduction of ALT and AST levels ([1]; TAA treated mice, co-administration): did not counteract the effect of SR144528 | astrogliosis, direction of change (GFAP staining, hippocampus) [2]: prevented; also recorded: Decrease (p < 0.001) | Inflammation (frequency of cells in the liver) [6]: reduced; also recorded: Decreased | Regeneration (frequency of cells in the liver) [6]: Increased

Oc1cc2c(cc1O)CN(C(=S)NCCc1ccc(Cl)cc1)CCC2 [capsazepine]
influence of the co-administered agent on the other agent's reduction of ALT and AST levels ([1]; mouse, in vivo): abolishment of the effect of capsaicin

— US10166202B2, “Treatment of hepatic encephalopathy and liver cirrhosis” (Yissum Research Development Company of the Hebrew …, priority 2006, dated 2019)
